According to a compilation of properties of binary mixtures (doi:10.1021/acs.jced.2c00294):

Assay: xn = mol fraction of the nth substance listed
Conditions: 101 kPa

Compound: CCCC[N+]1(C)CCCC1.N#C[N-]C#N + CCCC[N+]1(C)CCCC1.O=S(=O)([N-]S(=O)(=O)C(F)(F)F)C(F)(F)F
- electrical conductivity (298 K, x2 = 0.5): 0.565 S/m
- viscosity (298 K, x2 = 0.5): 51.3 mPa·s
- electrical conductivity (303 K, x2 = 0.5): 0.642 S/m
- viscosity (303 K, x2 = 0.5): 36.1 mPa·s
- electrical conductivity (308 K, x2 = 0.5): 0.746 S/m
- viscosity (308 K, x2 = 0.5): 32 mPa·s
- electrical conductivity (313 K, x2 = 0.5): 0.857 S/m
- viscosity (313 K, x2 = 0.5): 26.7 mPa·s
- viscosity (328 K, x2 = 0.5): 17.06 mPa·s

Compound: N#C[N-]S(=O)(=O)C(F)(F)F.[Li+] + CCCC[N+]1(CCCC1)C.[N-](C#N)S(=O)(=O)C(F)(F)F
- electrical conductivity (298 K, x1 = 0.05): 0.314 S/m
- viscosity (298 K, x1 = 0.05): 73 mPa·s
- electrical conductivity (298 K, x1 = 0.1): 0.227 S/m
- viscosity (298 K, x1 = 0.1): 107.9 mPa·s
- electrical conductivity (298 K, x1 = 0.2): 0.08 S/m
- viscosity (298 K, x1 = 0.2): 379 mPa·s
- electrical conductivity (303 K, x1 = 0.05): 0.372 S/m
- viscosity (303 K, x1 = 0.05): 62.2 mPa·s
- electrical conductivity (303 K, x1 = 0.2): 0.101 S/m
- viscosity (303 K, x1 = 0.2): 312 mPa·s
- electrical conductivity (308 K, x1 = 0.05): 0.442 S/m
- viscosity (308 K, x1 = 0.05): 50.5 mPa·s
- electrical conductivity (308 K, x1 = 0.1): 0.334 S/m
- viscosity (308 K, x1 = 0.1): 73 mPa·s
- electrical conductivity (308 K, x1 = 0.2): 0.127 S/m
- viscosity (308 K, x1 = 0.2): 243 mPa·s
- electrical conductivity (313 K, x1 = 0.05): 0.523 S/m
- viscosity (313 K, x1 = 0.05): 42.4 mPa·s
- electrical conductivity (313 K, x1 = 0.1): 0.401 S/m
- viscosity (313 K, x1 = 0.1): 60.7 mPa·s
- electrical conductivity (313 K, x1 = 0.2): 0.156 S/m
- viscosity (313 K, x1 = 0.2): 191 mPa·s
- electrical conductivity (318 K, x1 = 0.05): 0.611 S/m
- viscosity (318 K, x1 = 0.05): 35.8 mPa·s
- electrical conductivity (318 K, x1 = 0.1): 0.513 S/m
- viscosity (318 K, x1 = 0.1): 50.6 mPa·s
- electrical conductivity (323 K, x1 = 0.2): 0.234 S/m
- viscosity (323 K, x1 = 0.2): 121.8 mPa·s
- viscosity (328 K, x1 = 0.05): 23.6 mPa·s
- viscosity (328 K, x1 = 0.2): 99.9 mPa·s

Compound: CCCC[N+]1(C)CCCC1.N#C[N-]S(=O)(=O)C(F)(F)F + [Li+].[N-](C#N)S(=O)(=O)C(F)(F)F
- electrical conductivity (298 K, x2 = 0): 0.458 S/m
- viscosity (298 K, x2 = 0): 45.9 mPa·s
- electrical conductivity (303 K, x2 = 0): 0.546 S/m
- viscosity (303 K, x2 = 0): 40.4 mPa·s
- electrical conductivity (318 K, x2 = 0): 0.869 S/m
- viscosity (318 K, x2 = 0): 24.6 mPa·s
- electrical conductivity (323 K, x2 = 0): 1 S/m
- viscosity (323 K, x2 = 0): 21.5 mPa·s
- viscosity (328 K, x2 = 0): 16.19 mPa·s
